Measured values taken from patent publication US10947196B2, “Beta adrenergic agonist and methods of using the same” (CURASEN THERAPEUTICS, INC., priority 2019, dated 2021).
Read-outs that look alike come from different tables or passages of the source.

Key:
β2 adrenergic receptor = β2 adrenergic receptor (Homo sapiens (Human), UniProt P07550); assay: cAMP Gs dynamic HTRF assay, β2 expressing CHO cells; type: cell-based
Method: (§1) cAMP homogeneous time-resolved fluorescence (HTRF). Compound efficacy was determined using the cAMP Gs dynamic HTRF assay (Cisbio, catalog #62AM4PEC) largely following the manufacturer's instructions, also detailed below.
(§2) Compound preparation. […] Standard serial dilution curves were 10-point, 5-fold dilutions starting from a highest concentration of 10 μM. […] Assay plates were centrifuged at 500×g for 10 seconds. Compounds and IBMX were prepared at 2× final dose to compensate for addition of cells.
(§3) Cell preparation. 1× stimulation buffer, washing PBS (Dulbecco's phosphate-buffered saline, −Mg −Ca; Caisson Labs, catalog #PBL01), assay PBS (Dulbecco's phosphate-buffered saline, +Mg, +Ca; Caisson Labs, catalog #PBL02) and Versene (0.02% EDTA disodium salt solution in PBS without calcium or magnesium; Caisson Labs, catalog #EDL01) were pre-warmed to 37° C. Cells expressing beta-adrenergic receptor were washed in washing PBS to remove growth medium and then released from the surface by incubating with Versene for 5-10 minutes at 37° C. Cells were harvested using assay PBS, counted manually by hemocytometer or by an automated cell counter, pelleted by centrifugation (200×g, 5 minutes) and resuspended in 37° C. 1× stimulation buffer to a final density of 1.5×10^6 cells/mL. 5 μL of the suspended cell solution (7500 cell total) were added to all wells of the 384 well assay plate, the assay plate was covered with an Axygen® plate seal (Corning PCR-SP) and incubated in a humidified 37° C. environment supplemented with 5% CO2 for 30 minutes.
(§4) HTRF reagent addition, reading and data analysis. After 30 minutes of cell stimulation with test compound, the assay plates were centrifuged at 500×g for 10 seconds, and incubation was stopped with the addition of 5 μL cAMP-D2 acceptor, diluted 1:21 in detection and lysis buffer 2 (Cisbio 62CL2FDF) was added to all cells. Subsequently, 5 μL Anti-cAMP-Eu Donor, diluted 1:21 in detection and lysis buffer 2, was added to cells. Plates were sealed and reactions gently ‘vortexed’ at 900 rpm on a Heidolph Titramax 1000 for at least 30 minutes at room temperature. Plates were centrifuged again at 500×g for 10 seconds, and HTRF was measured using a Tecan Spark plate reader at 50 flashes per well. […] Potency estimates (EC50) were derived from the four-parameter nonlinear regression of the concentration-effect curve and an estimate of relative efficacy was determined by comparing the magnitude of the test compound HTRF signal window (min−max dose) with the signal window of the full agonist control, isoproterenol.

β1-adrenergic receptor = β1-adrenergic receptor (Homo sapiens (Human), UniProt P08588); assay: cAMP Gs dynamic HTRF assay, β1 expressing CHO cells; type: cell-based
Method: as §1, §2, §3, §4

[1] = B2-AR, CHO-K1 (HitHunter), read-out: Average pEC50 [Receptor subtype: B2-AR, Cell type: CHO-K1 (HitHunter)] (converted)
[2] = B2-AR, CHO-K cells, read-out: Average EC50 [Receptor subtype: B2-AR, Cell type: CHO-K]
[3] = B1-AR, CHO-K cells, read-out: Average EC50 [Receptor subtype: B1-AR, Cell type: CHO-K]
[4] = B1-AR, CHO-K1 (HitHunter), read-out: Average pEC50 [Receptor subtype: B1-AR, Cell type: CHO-K1 (HitHunter)] (converted)

Chain of β2 adrenergic receptor (P07550 whole entry, species assumed): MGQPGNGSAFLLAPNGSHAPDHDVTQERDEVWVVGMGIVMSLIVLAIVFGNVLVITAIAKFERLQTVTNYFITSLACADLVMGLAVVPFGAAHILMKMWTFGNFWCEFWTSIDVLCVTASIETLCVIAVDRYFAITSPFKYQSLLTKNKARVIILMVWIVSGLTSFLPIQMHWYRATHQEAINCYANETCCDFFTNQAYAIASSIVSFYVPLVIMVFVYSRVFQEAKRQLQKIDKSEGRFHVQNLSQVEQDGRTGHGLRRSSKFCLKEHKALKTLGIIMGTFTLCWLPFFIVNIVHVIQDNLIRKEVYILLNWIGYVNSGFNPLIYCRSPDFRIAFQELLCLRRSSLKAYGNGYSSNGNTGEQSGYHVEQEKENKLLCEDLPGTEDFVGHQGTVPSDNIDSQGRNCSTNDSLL
Chain of β1-adrenergic receptor (P08588 whole entry, species assumed): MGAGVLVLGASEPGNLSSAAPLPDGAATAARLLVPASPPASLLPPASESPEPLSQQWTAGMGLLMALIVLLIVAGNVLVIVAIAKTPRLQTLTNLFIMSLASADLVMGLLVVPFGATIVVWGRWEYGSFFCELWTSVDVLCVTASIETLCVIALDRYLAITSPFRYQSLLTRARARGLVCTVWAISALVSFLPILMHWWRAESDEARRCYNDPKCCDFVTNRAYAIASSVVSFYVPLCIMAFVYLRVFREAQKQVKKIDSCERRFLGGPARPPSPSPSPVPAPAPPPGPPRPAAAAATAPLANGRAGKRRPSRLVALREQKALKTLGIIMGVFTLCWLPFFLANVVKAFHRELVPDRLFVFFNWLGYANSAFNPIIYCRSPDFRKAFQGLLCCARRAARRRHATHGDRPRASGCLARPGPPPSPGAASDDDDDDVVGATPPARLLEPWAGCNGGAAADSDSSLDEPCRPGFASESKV

Compound	EC50 (β2 adrenergic receptor; [1]) [nM]	EC50 (β2 adrenergic receptor; [2]) [nM]	EC50 (β1-adrenergic receptor; [3]) [nM]	further results
CC(C)(C)NC[C@H](O)c1ncccc1C(F)(F)F [Compound 03-1, (S)-2-(tert-butylamino)-1-(3-(trifluoromethyl)pyridin-2-yl)ethan-1-ol]	–	–	–	EC50 (β2 adrenergic receptor; cAMP HTRF, read-out: β2 EC50): > 1000 nM; EC50 (β1-adrenergic receptor; cAMP HTRF, read-out: β1 EC50): > 1000 nM
CC(C)(C)NC[C@H](O)c1cc(C(F)(F)F)ccn1 [Compound 03-2]	–	–	–	EC50 (β2 adrenergic receptor; cAMP HTRF, read-out: β2 EC50): 100 to 1000 nM; EC50 (β1-adrenergic receptor; cAMP HTRF, read-out: β1 EC50): > 1000 nM
Cc1cccnc1[C@@H](O)CNC(C)(C)C [Compound 03-4]	–	–	–	EC50 (β2 adrenergic receptor; cAMP HTRF, read-out: β2 EC50): > 1000 nM; EC50 (β1-adrenergic receptor; cAMP HTRF, read-out: β1 EC50): > 1000 nM
CN(C)C(=O)c1cccc([C@@H](O)CNC(C)(C)C)n1 [Compound 03-7]	100 to 1000	100 to 1000	> 1000	Average pEC50 [Receptor subtype: B1-AR; Cell type: CHO-K1 (HitHunter)] (β1-adrenergic receptor; B1-AR, CHO-K1 (HitHunter)): D (D < 6)
CC1(NC[C@@H](O)c2cccc(C(F)(F)F)n2)CCC1 [Compound 03-12]	100 to 1000	100 to 1000	> 1000	EC50 (β1-adrenergic receptor; [4]): > 1000 nM
CC1(NC[C@@H](O)c2cccc(C(F)(F)F)n2)CC1 [Compound 03-13]	> 1000	> 1000	> 1000	EC50 (β1-adrenergic receptor; [4]): > 1000 nM
COc1ccc(C[C@@H](C)NC[C@@H](O)c2cccc(C(F)(F)F)n2)cc1 [Compound 03-16]	10 to 100	10 to 100	100 to 1000	EC50 (β1-adrenergic receptor; [4]): 100 to 1000 nM
CC(C)(C)NC[C@H](O)c1cccc(C(N)=O)n1 [Compound 03-17]	> 1000	> 1000	> 1000	Average pEC50 [Receptor subtype: B1-AR; Cell type: CHO-K1 (HitHunter)] (β1-adrenergic receptor; B1-AR, CHO-K1 (HitHunter)): D (D < 6)
CC(C)(C)NC[C@H](O)c1cccc(-c2nnn[nH]2)n1 [Compound 03-18]	–	–	> 1000	Average pEC50 [Receptor subtype: B1-AR; Cell type: CHO-K1 (HitHunter)] (β1-adrenergic receptor; B1-AR, CHO-K1 (HitHunter)): D (D < 6)
Cc1cc([C@H](O)CNC(C)(C)C)nc(C(F)(F)F)c1 [Compound 03-20]	100 to 1000	100 to 1000	> 1000	EC50 (β1-adrenergic receptor; [4]): > 1000 nM
O[C@H](CNC1Cc2ccccc2C1)c1cccc(C(F)(F)F)n1 [Compound 03-22]	> 1000	> 1000	> 1000	EC50 (β1-adrenergic receptor; [4]): > 1000 nM
CC1(NC[C@H](O)c2cccc(C(F)(F)F)n2)CCOCC1 [Compound 03-23]	100 to 1000	100 to 1000	100 to 1000	EC50 (β1-adrenergic receptor; [4]): 100 to 1000 nM
O[C@@H](CNC1CCOCC1)c1cccc(C(F)(F)F)n1 [Compound 03-25]	> 1000	> 1000	> 1000	Average pEC50 [Receptor subtype: B1-AR; Cell type: CHO-K1 (HitHunter)] (β1-adrenergic receptor; B1-AR, CHO-K1 (HitHunter)): D (D < 6)
CC(C)(C)NC[C@@H](O)c1ccc(C#N)c(C(F)(F)F)n1 [Compound 03-31]	> 1000	> 1000	–	–
CN(C)c1ncccc1[C@@H](O)CNC(C)(C)C [Compound 03-56]	> 1000	> 1000	–	–
CC(C)(C)NC[C@H](O)c1cccnc1-c1cccc(F)c1 [Compound 03-61]	> 1000	> 1000	–	–
CC(C)(C)NC[C@H](O)c1cccnc1C1=CCCC1 [Compound 03-62]	> 1000	–	–	–
CCNc1ncccc1[C@@H](O)CNC(C)(C)C [Compound 03-73]	> 1000	–	–	–
Cc1cnc(C2CCCC2)c([C@@H](O)CNC(C)(C)C)c1 [Compound 03-77]	> 1000	–	–	–
CC(C)(C)NC[C@H](O)c1cc(C(F)(F)F)cnc1C1CCCC1 [Compound 03-78]	–	–	–	EC50 (β1-adrenergic receptor; [4]): < 10 nM
CC(C)(C)NC[C@H](O)c1cccnc1C(C)(C)C [Compound 03-79]	> 1000	–	–	–
CC(C)(C)NC[C@H](O)c1cccnc1CC(F)(F)F [Compound 03-84]	> 1000	–	–	–
Cc1cc([C@@H](O)CNC(C)(C)C)ccn1 [Compound 03-108]	> 1000	–	–	–
CC(C)(C)NCC(O)c1cccnc1C(=O)NC(C)(C)C (stereo not drawn) [Compound 03-112]	> 1000	> 1000	–	–

Compound	EC50 (β2 adrenergic receptor; [1]) [nM]	EC50 (β2 adrenergic receptor; [2]) [nM]	EC50 (β1-adrenergic receptor; [3]) [nM]	further results
CC(C)(C)NCC(O)c1cccnc1C(=O)O (stereo not drawn) [Compound 03-113]	> 1000	> 1000	–	–
Cc1ncccc1[C@H](O)CNC(C)(C)C [Compound 03-116]	> 1000	> 1000	–	–
CC(C)(C)NC[C@H](O)c1cccnc1C(F)(F)F [Compound 03-118]	100 to 1000	100 to 1000	–	–
CC(C)(C)NC[C@H](O)c1cccc(-c2ccc(Cl)cc2)n1 [Compound 03-119]	–	–	100 to 1000	Average pEC50 [Receptor subtype: B1-AR; Cell type: CHO-K1 (HitHunter)] (β1-adrenergic receptor; B1-AR, CHO-K1 (HitHunter)): C (C = <7-6)
CC(C)(C)NC[C@@H](O)c1cccc(-c2cccc(F)c2)n1 [Compound 03-132]	–	–	> 1000	Average pEC50 [Receptor subtype: B1-AR; Cell type: CHO-K1 (HitHunter)] (β1-adrenergic receptor; B1-AR, CHO-K1 (HitHunter)): D (D < 6)
CC(C)(C)NC[C@@H](O)c1cccc(N2CC3CCCC3C2)n1 (stereo partly drawn) [Compound 03-136]	10 to 100	10 to 100	–	–
CC(C)(C)NC[C@@H](O)c1cccc(N2CCCCC2)n1 [Compound 03-138]	–	–	> 1000	EC50 (β1-adrenergic receptor; [4]): > 1000 nM
CN1CCN(c2cccc([C@@H](O)CNC(C)(C)C)n2)CC1 [Compound 03-139]	–	–	> 1000	Average pEC50 [Receptor subtype: B1-AR; Cell type: CHO-K1 (HitHunter)] (β1-adrenergic receptor; B1-AR, CHO-K1 (HitHunter)): D (D < 6)
CC(C)(C)NC[C@@H](O)c1cccc(-c2ccc(F)cc2)n1 [Compound 03-146]	–	–	100 to 1000	EC50 (β1-adrenergic receptor; [4]): 100 to 1000 nM
Cc1ccccc1-c1cccc([C@H](O)CNC(C)(C)C)n1 [Compound 03-150]	–	–	> 1000	EC50 (β1-adrenergic receptor; [4]): > 1000 nM
CCN(CC)c1cccc([C@@H](O)CNC(C)(C)C)n1 [Compound 03-159]	–	–	10 to 100	EC50 (β1-adrenergic receptor; [4]): 10 to 100 nM
CC(C)(C)NC[C@H](O)c1nc(C(F)(F)F)cc2ccccc12 [Compound 03-171]	–	> 1000	–	–
CCOc1cccc([C@H](O)CNC(C)(C)C)n1 [Compound 03-178]	100 to 1000	100 to 1000	–	–
CC(C)Oc1cccc([C@H](O)CNC(C)(C)C)n1 [Compound 03-180]	100 to 1000	100 to 1000	–	–
CC(C)(C)NC[C@@H](O)c1nccc2ccccc12 [Compound 03-187]	–	> 1000	–	–
CC(=O)Nc1cccc([C@@H](O)CNC(C)(C)C)n1 [Compound 03-194]	> 1000	–	–	–
OC(CNC1(C(F)(F)F)CC1)c1cccc(C(F)(F)F)n1 (stereo not drawn) [Compound 03-218]	> 1000	–	–	–
CC(C)(C)NC[C@@H](O)c1ccc(C#N)cn1 [Compound 03-222]	> 1000	–	–	–
Cn1cc(-c2cccc([C@H](O)CNC(C)(C)C)n2)cn1 [Compound 03-224]	100 to 1000	–	–	–
CC(C)(C)NC[C@H](O)c1ccnc(C(F)(F)F)c1 [Compound 03-227]	> 1000	–	–	–
CC(C)(C)NC[C@@H](O)c1cccc(NC2CCCC2)n1 [Compound 03-236]	100 to 1000	–	–	–
CC(C)(C)NC[C@H](O)c1cccc(C(=O)O)n1 [Compound 03-240]	> 1000	–	–	–
CC(C)(C)NC[C@H](O)c1ccncc1C(F)(F)F [Compound 03-242]	> 1000	–	–	–
CC(C)(C)N(O)C[C@H](O)c1cccc(C(N)=O)n1 [Compound 03-245]	> 1000	–	–	–
